Experimental data as given in patent US20090075937A1, “LHRH ANTAGONISTS FOR THE TREATMENT OF LOWER URINARY TRACT SYMPTOMS” (AETERNA ZENTARIS GmbH, priority 2007, published 2009).
Non-standard residues stand in square brackets, D forms with d. Residues, ends and D or L forms follow the SMILES beside them. dPhe(4-Cl) = N[C@H](Cc1ccc(Cl)cc1)C(=O)O; d2Nal = N[C@H](Cc1ccc2ccccc2c1)C(=O)O; dCit = NC(=O)NCCC[C@@H](N)C(=O)O; d3Pal = N[C@H](Cc1cccnc1)C(=O)O

What was measured:
[1] = system: study subjects; experiment: IPSS irritative subscore (sum of nocturia, frequency of emptying and urgency to urinate); assay type: in vivo, human; conditions: for IPSS irritative subscore (nocturia, frequency of emptying, urgency to urinate): percentage variation from baseline
Description: (§1) The results shown are percentage variations from baseline at the beginning of the study (week 0).

[2] = system: study subjects; experiment: Frequency of emptying: how often the study subjects had to urinate a second time within a 2 hour test period; assay type: in vivo, human
Description: as §1
The results shown are mean values, how often the study subjects had to urinate a second time.

[3] = system: study subjects; experiment: Nocturia: how often the study subjects got up during the night in order to urinate; assay type: in vivo, human
Description: as §1
The results shown are mean values, how often the study subjects had to get up.

[4] = system: testosterone blood levels; experiment: Median testosterone blood levels / chemical (hormonal) castration; conditions: for Testosterone [ng/mL] (median): blood level
Description: Preferably, chemical (hormonal) castration is a testosterone castration and refers to a testosterone blood level of equal or below 1.2 ng/mL, preferably 0.5 ng/mL.
Study subjects were treated with Cetrorelix pamoate with the following doses according to the following administration schemes: • 60 mg Cetrorelix pamaote administered at week 0 and 30 mg Cetrorelix pamaote administered at week 2 (treatment period) followed by up to 5 months of no treatment (treatment-free period) • 60 mg Cetrorelix pamaote administered at week 0 and 60 mg Cetrorelix pamaote administered at week 2 (treatment period) followed by up to 5 months of no treatment (treatment-free period)
Study subjects were treated with Cetrorelix acetate with the following doses according to the following administration schemes: • 5 mg Cetrorelix acetate administered at week 0, 1, 2 and 3 (total monthly dose of 20 mg) (treatment period) followed by up to 4 months of no treatment (treatment-free period) • 10 mg Cetrorelix acetate administered at week 0 and 10 mg Cetrorelix acetate administered at week 2 (treatment period) followed by up to 4 months of no treatment (treatment-free period) • 10 mg Cetrorelix acetate administered at week 0, 1, 2 and 3 (total monthly dose of 40 mg) (treatment period) followed by up to 4 months of no treatment (treatment-free period)
Study subjects were treated with Ozarelix with the following doses according to the following administration schemes: • 15 mg Ozarelix administered at week 0 and 15 mg Ozarelix administered at week 2 (treatment period) followed by up to 4 months of no treatment (treatment-free period)

[5] = 2 × 10: 10 mg at week 0 and week 2, Week 0
[6] = 2 × 10: 10 mg at week 0 and week 2, Week 4
[7] = 2 × 10: 10 mg at week 0 and week 2, Week 8
[8] = 2 × 10: 10 mg at week 0 and week 2, Week 12
[9] = 2 × 10: 10 mg at week 0 and week 2, Week 16
[10] = 2 × 10: 10 mg at week 0 and week 2, Week 20
[11] = 4 × 5: 5 mg at week 0, 1, 2 and 3, Week 0
[12] = 4 × 5: 5 mg at week 0, 1, 2 and 3, Week 4
[13] = 4 × 5: 5 mg at week 0, 1, 2 and 3, Week 8
[14] = 4 × 5: 5 mg at week 0, 1, 2 and 3, Week 12
[15] = 4 × 5: 5 mg at week 0, 1, 2 and 3, Week 16
[16] = 4 × 5: 5 mg at week 0, 1, 2 and 3, Week 20
[17] = 4 × 10: 10 mg at week 0, 1, 2 and 3, Week 0
[18] = 4 × 10: 10 mg at week 0, 1, 2 and 3, Week 4
[19] = 4 × 10: 10 mg at week 0, 1, 2 and 3, Week 8
[20] = 4 × 10: 10 mg at week 0, 1, 2 and 3, Week 12
[21] = 4 × 10: 10 mg at week 0, 1, 2 and 3, Week 16
[22] = 4 × 10: 10 mg at week 0, 1, 2 and 3, Week 20
[23] = 5+5+5+5 mg, 10+10 mg and 10+10+10+10 mg schemes, largest difference, n-times mean

SMILES: CC(=O)N[C@H](Cc1ccc2ccccc2c1)C(=O)N[C@H](Cc1ccc(Cl)cc1)C(=O)N[C@H](Cc1cccnc1)C(=O)N[C@@H](CO)C(=O)N[C@@H](Cc1ccc(O)cc1)C(=O)N[C@H](CCCNC(N)=O)C(=O)N[C@@H](CC(C)C)C(=O)N[C@@H](CCCNC(=N)N)C(=O)N1CCC[C@H]1C(=O)N[C@H](C)C(N)=O [Cetrorelix acetate] (Ac-[d2Nal][dPhe(4-Cl)][d3Pal]SY[dCit]LRP[dA]-NH2)
- further decrease in IPSS irritative subscore compared to placebo ([1]; 5+5+5+5 mg, 10+10 mg and 10+10+10+10 mg schemes, largest difference): up to 43%
- IPSS irritative subscore (nocturia, frequency of emptying, urgency to urinate) [1, 5]: 0%
- IPSS irritative subscore (nocturia, frequency of emptying, urgency to urinate) [1, 6]: −25%
- IPSS irritative subscore (nocturia, frequency of emptying, urgency to urinate) [1, 7]: −33.3%
- IPSS irritative subscore (nocturia, frequency of emptying, urgency to urinate) [1, 8]: −33.3%
- IPSS irritative subscore (nocturia, frequency of emptying, urgency to urinate) [1, 9]: −42.9%
- IPSS irritative subscore (nocturia, frequency of emptying, urgency to urinate) [1, 10]: −29.2%
- IPSS irritative subscore (nocturia, frequency of emptying, urgency to urinate) [1, 11]: 0%
- IPSS irritative subscore (nocturia, frequency of emptying, urgency to urinate) [1, 12]: −16.7%
- IPSS irritative subscore (nocturia, frequency of emptying, urgency to urinate) [1, 13]: −25%
- IPSS irritative subscore (nocturia, frequency of emptying, urgency to urinate) [1, 14]: −28.6%
- IPSS irritative subscore (nocturia, frequency of emptying, urgency to urinate) [1, 15]: −30.8%
- IPSS irritative subscore (nocturia, frequency of emptying, urgency to urinate) [1, 16]: −29.7%
- IPSS irritative subscore (nocturia, frequency of emptying, urgency to urinate) [1, 17]: 0%
- IPSS irritative subscore (nocturia, frequency of emptying, urgency to urinate) [1, 18]: −29.3%
- IPSS irritative subscore (nocturia, frequency of emptying, urgency to urinate) [1, 19]: −31%
- IPSS irritative subscore (nocturia, frequency of emptying, urgency to urinate) [1, 20]: −25%
- IPSS irritative subscore (nocturia, frequency of emptying, urgency to urinate) [1, 21]: −28.6%
- IPSS irritative subscore (nocturia, frequency of emptying, urgency to urinate) [1, 22]: −25%
- Frequency of emptying (n-times, mean) [2, 5]: 2.29 n-times
- Frequency of emptying (n-times, mean) [2, 6]: 1.86 n-times
- Frequency of emptying (n-times, mean) [2, 7]: 1.58 n-times
- Frequency of emptying (n-times, mean) [2, 8]: 1.55 n-times
- Frequency of emptying (n-times, mean) [2, 9]: 1.45 n-times
- Frequency of emptying (n-times, mean) [2, 10]: 1.66 n-times
- Frequency of emptying (n-times, mean) [2, 11]: 2.49 n-times
- Frequency of emptying (n-times, mean) [2, 12]: 2.23 n-times
- Frequency of emptying (n-times, mean) [2, 13]: 2.00 n-times
- Frequency of emptying (n-times, mean) [2, 14]: 1.73 n-times
- Frequency of emptying (n-times, mean) [2, 15]: 1.52 n-times
- Frequency of emptying (n-times, mean) [2, 16]: 1.79 n-times
- Frequency of emptying (n-times, mean) [2, 17]: 2.86 n-times
- Frequency of emptying (n-times, mean) [2, 18]: 1.62 n-times
- Frequency of emptying (n-times, mean) [2, 19]: 1.66 n-times
- Frequency of emptying (n-times, mean) [2, 20]: 1.81 n-times
- Frequency of emptying (n-times, mean) [2, 21]: 1.65 n-times
- Frequency of emptying (n-times, mean) [2, 22]: 1.78 n-times
- decrease in frequency of emptying compared to placebo [2, 23]: up to 1.35
- Nocturia (n-times, mean) [3, 5]: 2.69 n-times
- Nocturia (n-times, mean) [3, 6]: 2.00 n-times
- Nocturia (n-times, mean) [3, 7]: 2.06 n-times
- Nocturia (n-times, mean) [3, 8]: 1.97 n-times
- Nocturia (n-times, mean) [3, 9]: 1.97 n-times
- Nocturia (n-times, mean) [3, 10]: 2.16 n-times
- Nocturia (n-times, mean) [3, 11]: 2.57 n-times
- Nocturia (n-times, mean) [3, 12]: 2.09 n-times
- Nocturia (n-times, mean) [3, 13]: 1.94 n-times
- Nocturia (n-times, mean) [3, 14]: 1.85 n-times
- Nocturia (n-times, mean) [3, 15]: 1.79 n-times
- Nocturia (n-times, mean) [3, 16]: 1.85 n-times
- Nocturia (n-times, mean) [3, 17]: 2.63 n-times
- Nocturia (n-times, mean) [3, 18]: 1.79 n-times
- Nocturia (n-times, mean) [3, 19]: 1.78 n-times
- Nocturia (n-times, mean) [3, 20]: 1.75 n-times
- Nocturia (n-times, mean) [3, 21]: 1.87 n-times
- Nocturia (n-times, mean) [3, 22]: 2.16 n-times
- decrease in nocturia frequency compared to placebo [3, 23]: up to 0.71
- chemical (hormonal) castration ([4]; 5+5+5+5 mg, 10+10 mg and 10+10+10+10 mg schemes, conclusion from median testosterone blood levels): successfully prevented
- Testosterone [ng/mL] (median) [4, 5]: 3.27 ng/mL
- Testosterone [ng/mL] (median) [4, 6]: 4.41 ng/mL
- Testosterone [ng/mL] (median) [4, 7]: 3.73 ng/mL
- Testosterone [ng/mL] (median) [4, 8]: 4.45 ng/mL
- Testosterone [ng/mL] (median) [4, 9]: 4.16 ng/mL
- Testosterone [ng/mL] (median) [4, 10]: 4.12 ng/mL
- Testosterone [ng/mL] (median) [4, 11]: 3.42 ng/mL
- Testosterone [ng/mL] (median) [4, 12]: 2.95 ng/mL
- Testosterone [ng/mL] (median) [4, 13]: 3.77 ng/mL
- Testosterone [ng/mL] (median) [4, 14]: 4.11 ng/mL
- Testosterone [ng/mL] (median) [4, 15]: 3.91 ng/mL
- Testosterone [ng/mL] (median) [4, 16]: 3.49 ng/mL
- Testosterone [ng/mL] (median) [4, 17]: 3.41 ng/mL
- Testosterone [ng/mL] (median) [4, 18]: 2.17 ng/mL
- Testosterone [ng/mL] (median) [4, 19]: 3.82 ng/mL
- Testosterone [ng/mL] (median) [4, 20]: 4.32 ng/mL
- Testosterone [ng/mL] (median) [4, 21]: 4.32 ng/mL
- Testosterone [ng/mL] (median) [4, 22]: 4.06 ng/mL
